Data published in patent US20250170147A1, “NEUROACTIVE STEROIDS FOR TREATMENT OF GASTROINTESTINAL DISEASES OR CONDITIONS” (Sage Therapeutics, Inc., priority 2022, published 2025).
“Also recorded” adds a separate entry of the source. Marks after values point to notes of the source that are not given here.

Legend:
[1] = tested on: patients with major depressive disorder; conditions: meta-analysis, cited from earlier work; for rates of gastrointestinal adverse reactions compared to placebo: 15 most commonly used antidepressants in MDD; for tolerability on the gastrointestinal tract among antidepressants: patients with MDD
[2] = clinical trials; meta-analysis; cited from earlier work
adults with MDD [3] = experiment: Study NCT04476030: treatment-emergent adverse events (safety set); type: in vivo, human; conditions: for tolerability: zuranolone 50 mg once daily 14 days co-initiated with SOC ADT
Protocol: (§1) A randomized, double-blind, parallel-group, active/placebo-controlled study (NCT04476030) in participants with major depressive disorder (MDD) was conducted. The study evaluated the efficacy and safety of zuranolone 50 mg co-initiated with standard-of-care (SOC) antidepressant therapies (ADTs) (zuranolone+ADT) vs placebo co-initiated with SOC ADT (placebo+ADT) in adults with MDD. Patients were randomized 1:1 to once-daily, blinded zuranolone+ADT or placebo+ADT for 14 days then continued open-label SOC ADT for 28 more days.
An AE could therefore be any unfavorable and unintended sign (including an abnormal laboratory finding), symptom or disease temporally associated with the use of a medicinal (investigational) product whether or not related to the medicinal (investigational) product. In clinical studies, an AE could include an undesirable medical condition occurring at any time, including baseline or washout periods, even if no study treatment had been administered.
A treatment emergent adverse event (TEAE) was defined as an AE with onset after the start of investigational product (IP), or any worsening of a pre-existing medical condition/AE with onset after the start of IP and throughout the study. The term IP included any Sage IP, a comparator, or a placebo administered in a clinical study.
The investigator made the determination of relationship to the IP for each AE (not related, related). The following definitions should have been considered when evaluating the relationship of AEs and SAEs to the IP.

adults with MDD [4] = experiment: Study NCT04476030: suicidal ideation/behavior by C-SSRS; type: in vivo, human; conditions: compared to baseline
Protocol: as §1
(§2) The proportion of patients who had suicidal ideation at any post baseline visit from Day 3 through Day 42 ranged from 4.8% to 11.7% in the zuranolone+ADT group and from 6.0% to 12.4% in the placebo+ADT group. No patients who received placebo+ADT experienced suicidal behavior.

adults with MDD [5] = experiment: Study NCT04476030: withdrawal symptoms by Physician Withdrawal Checklist (PWC-20); type: in vivo, human
Protocol: as §1, §2

[6] = ADT continuation period, of 212
[7] = double blinded treatment period
[8] = double blinded treatment period, of 212
[9] = safety set n=212, listed as zuranolone+ADT
[10] = zuranolone 50 mg + ADT, safety set n=212, whole study

Compound: COc1ccc2cccc(CCNC(C)=O)c2c1 [agomelatine]
- rates of gastrointestinal adverse reactions compared to placebo [1]: higher rates

Compound: CC(NC(C)(C)C)C(=O)c1cccc(Cl)c1 (stereo not shown) [bupropion]
- rates of gastrointestinal adverse reactions compared to placebo [1]: higher rates

Compound: CN(C)CCCC1(c2ccc(F)cc2)OCc2cc(C#N)ccc21 (stereo not shown) [citalopram]
- rates of gastrointestinal adverse reactions compared to placebo [1]: higher rates

Compound: CN(C)CC(c1ccc(O)cc1)C1(O)CCCCC1 (stereo not shown) [desvenlafaxine]
- rates of gastrointestinal adverse reactions compared to placebo [1]: higher rates

Compound: CNCC[C@H](Oc1cccc2ccccc12)c1cccs1 [duloxetine]
- rates of gastrointestinal adverse reactions compared to placebo [1]: higher rates

Compound: CN(C)CCC[C@@]1(c2ccc(F)cc2)OCc2cc(C#N)ccc21 [escitalopram]
- rates of gastrointestinal adverse reactions compared to placebo [1]: higher rates
- tolerability on the gastrointestinal tract among antidepressants [1]: least tolerated

Compound: CNCCC(Oc1ccc(C(F)(F)F)cc1)c1ccccc1 (stereo not shown) [fluoxetine]
- rates of gastrointestinal adverse reactions compared to placebo [1]: higher rates

Compound: COCCCC/C(=N\OCCN)c1ccc(C(F)(F)F)cc1 [fluvoxamine]
- rates of gastrointestinal adverse reactions compared to placebo [1]: higher rates

Compound: CCN(CC)C(=O)[C@@]1(c2ccccc2)C[C@H]1CN [levomilnacipran]
- rates of gastrointestinal adverse reactions compared to placebo [1]: higher rates

Compound: CN1CCN2c3ncccc3Cc3ccccc3C2C1 (stereo not shown) [mirtazapine]
- rates of gastrointestinal adverse reactions compared to placebo [1]: higher rates

Compound: Fc1ccc([C@@H]2CCNC[C@H]2COc2ccc3c(c2)OCO3)cc1 [paroxetine]
- rates of gastrointestinal adverse reactions compared to placebo [1]: higher rates

Compound: CCOc1ccccc1OC(c1ccccc1)C1CNCCO1 (stereo not shown) [reboxetine]
- rates of gastrointestinal adverse reactions compared to placebo [1]: higher rates

Compound: CN[C@H]1CC[C@@H](c2ccc(Cl)c(Cl)c2)c2ccccc21 [sertraline]
- rates of gastrointestinal adverse reactions compared to placebo [1]: higher rates
- tolerability on the gastrointestinal tract among antidepressants [1]: least tolerated
- incidence of diarrhea compared to other SSRIs and venlafaxine [2]: higher incidence of diarrhea

Compound: COc1ccc(C(CN(C)C)C2(O)CCCCC2)cc1 (stereo not shown) [venlafaxine]
- rates of gastrointestinal adverse reactions compared to placebo [1]: higher rates
- rates of nausea and vomiting compared to SSRIs and duloxetine [2]: higher rates of nausea and vomiting

Compound: Cc1ccc(Sc2ccccc2N2CCNCC2)c(C)c1 [vortioxetine]
- rates of gastrointestinal adverse reactions compared to placebo [1]: higher rates

Compound: zuranolone [Zuranolone + ADT]
- Sexual Dysfunction TEAE, incidence (adults with MDD [3]; ADT continuation period): 0.9%
- Sleep Disorders TEAE, incidence (adults with MDD [3]; ADT continuation period): 3.8%
- TEAEs during the ADT continuation period, incidence (adults with MDD [3]; ADT continuation period): 31.6%
- Sexual Dysfunction TEAE, number of patients (adults with MDD [3]; [6]): 2
- Sleep Disorders TEAE, number of patients (adults with MDD [3]; [6]): 8
- TEAEs during the ADT continuation period, number of patients (adults with MDD [3]; [6]): 67
- incidence of gastrointestinal AEs (e.g., nausea, diarrhea) vs placebo+ADT (adults with MDD [3]; comparison with placebo+ADT): lower incidence
- Sexual Dysfunction TEAE, incidence (adults with MDD [3]; [7]): 3.8%
- Sleep Disorders TEAE, incidence (adults with MDD [3]; [7]): 9.9%
- Sexual Dysfunction TEAE, number of patients (adults with MDD [3]; [8]): 8
- Sleep Disorders TEAE, number of patients (adults with MDD [3]; [8]): 21
- TEAEs during the double-blind treatment period, incidence (adults with MDD [3]; double-blind treatment period): 68.4%
- TEAEs during the double-blind treatment period, number of patients (adults with MDD [3]; double-blind treatment period, of 212): 145
- Decreased Appetite TEAE, incidence (adults with MDD [3]; safety set n=212): (5.7%)
- Decreased Appetite TEAE, number of patients (adults with MDD [3]; safety set n=212): 12
- Diarrhea TEAE, incidence (adults with MDD [3]; safety set n=212): (6.1%)
- Diarrhea TEAE, number of patients (adults with MDD [3]; safety set n=212): 13
- Dizziness TEAE, number of patients (adults with MDD [3]; safety set n=212): 28
- Dose reduction due to TEAE, incidence (adults with MDD [3]; safety set n=212): (9.4%)
- Dose reduction due to TEAE, number of patients (adults with MDD [3]; safety set n=212): 20
- Dry Mouth TEAE, incidence (adults with MDD [3]; safety set n=212): (9.4%)
- Dry Mouth TEAE, number of patients (adults with MDD [3]; safety set n=212): 20
- Fatigue TEAE, incidence (adults with MDD [3]; safety set n=212): (8.5%)
- Fatigue TEAE, number of patients (adults with MDD [3]; safety set n=212): 18
- Headache TEAE, number of patients (adults with MDD [3]; safety set n=212): 25
- Insomnia TEAE, incidence (adults with MDD [3]; safety set n=212): (9.9%)
- Insomnia TEAE, number of patients (adults with MDD [3]; safety set n=212): 21
- Nausea TEAE, number of patients (adults with MDD [3]; safety set n=212): 19
- Sedation TEAE, incidence (adults with MDD [3]; safety set n=212): (5.7%)
- Sedation TEAE, number of patients (adults with MDD [3]; safety set n=212): 12
- Serious AEs, incidence (adults with MDD [3]; safety set n=212): (0.9%)^c
- Serious AEs, number of patients (adults with MDD [3]; safety set n=212): 2
- Somnolence TEAE, number of patients (adults with MDD [3]; safety set n=212): 39
- Study withdrawal due to TEAE, incidence (adults with MDD [3]; safety set n=212): (5.2%)
- Study withdrawal due to TEAE, number of patients (adults with MDD [3]; safety set n=212): 11
- TEAE maximum severity Mild, incidence (adults with MDD [3]; safety set n=212): (35.8%)
- TEAE maximum severity Mild, number of patients (adults with MDD [3]; safety set n=212): 76
- TEAE maximum severity Moderate, incidence (adults with MDD [3]; safety set n=212): (34.4%)
- TEAE maximum severity Moderate, number of patients (adults with MDD [3]; safety set n=212): 73
- TEAE maximum severity Severe, incidence (adults with MDD [3]; safety set n=212): (3.8%)
- TEAE maximum severity Severe, number of patients (adults with MDD [3]; safety set n=212): 8
- Treatment discontinuation due to TEAE, incidence (adults with MDD [3]; safety set n=212): (6.6%)
- Treatment discontinuation due to TEAE, number of patients (adults with MDD [3]; safety set n=212): 14
- Tremor TEAE, incidence (adults with MDD [3]; safety set n=212): (5.2%)
- Tremor TEAE, number of patients (adults with MDD [3]; safety set n=212): 11
- Dizziness TEAE, incidence (adults with MDD [3]; [9]): 13.2%
- Headache TEAE, incidence (adults with MDD [3]; [9]): 14.7%
- Nausea TEAE, incidence (adults with MDD [3]; [9]): 9.0%
- Serious AEs, incidence (adults with MDD [3]; [9]): 0.9%
- Serious AEs, number of patients (adults with MDD [3]; [9]): Two
- Somnolence TEAE, incidence (adults with MDD [3]; [9]): 18.4%
- Gastrointestinal disorder TEAE, incidence (adults with MDD [3]; whole study): 29.7%
- Sexual Dysfunction TEAE, incidence (adults with MDD [3]; whole study): 4.7%
- Sleep Disorders TEAE, incidence (adults with MDD [3]; whole study): 12.7%
- Gastrointestinal disorder TEAE, number of patients (adults with MDD [3]; whole study, of 212): 63
- Sexual Dysfunction TEAE, number of patients (adults with MDD [3]; whole study, of 212): 10
- Sleep Disorders TEAE, number of patients (adults with MDD [3]; whole study, of 212): 27
- Any TEAE, incidence (adults with MDD [3]; [10]): (74.1%)
- Any TEAE, number of patients (adults with MDD [3]; [10]): 157
- Any TEAE, incidence (adults with MDD [3]; zuranolone 50 mg + ADT, safety set n=212, whole study, listed as zuranolone+ADT): 74.1%
- tolerability (adults with MDD [3]): generally well-tolerated
- tolerability (adults with MDD [3]; listed as zuranolone co-initiated with an SOC ADT): generally well tolerated
- suicidal ideation/behavior signals vs baseline (C-SSRS) (adults with MDD [4]): No increases from baseline; also recorded: No signals for an increased suicidal ideation or suicidal behavior
- mean decrease from baseline in PWC-20 total score (adults with MDD [5]; Day 18): −0.6
- mean decrease from baseline in PWC-20 total score (adults with MDD [5]; Day 21): −0.8
- withdrawal symptoms (PWC-20) (adults with MDD [5]; after discontinuation): No increases from baseline; also recorded: No signals for an evidence of withdrawal symptoms
